Assay results from PMC9211397, “High-Throughput Screening Platform To Identify Inhibitors of Protein Synthesis with Potential for the Treatment of Malaria” (Antimicrobial Agents and Chemotherapy, 2022).

What was measured:
[1] = test system: human translation (HEK 293F lysate); test: Human in vitro translation (HsIVT) assay, HEK 293F lysate, luciferase reporter; assay type: biochemical; conditions: for effect on translation in the HsIVT assay (Fig. S3A): 10 µM, three technical replicates
Text: (§1) Our P. falciparum in vitro translation (PfIVT) assay is built upon previously established assays ([14], [17]) and is summarized in Fig. 1A. In this assay, successful reconstitution of Plasmodium protein translation is reported via synthesis of a luciferase reporter. For PfIVT, two independent untranslated regions (UTRs), previously shown to promote strong levels of translation ([17]), were introduced upstream and downstream of the luciferase. The 5′ UTR from P. falciparum histidine-rich protein 3 (PfHrp3) ([18]) was introduced upstream of the reporter gene, and the 3′ UTR from P. falciparum histidine-rich protein 2 (PfHrp2) gene ([19]) was introduced downstream. For the reporter construct to support our complementary human IVT assay (HsIVT), the 5′ UTR was replaced with an internal ribosome entry site (IRES) from encephalomyocarditis virus (EMCV) ([20]) and the 3′ UTR was replaced with a poly(A) tail ([21]). […] Finally, a 30-bp poly(A) tail, present within the vector and downstream of the luciferase gene, was inserted to enhance mRNA stability ([21]).
(§2) Translationally active P. falciparum or human embryonic kidney (HEK) 293F lysates were supplemented with accessory, helper, amino acid, and energy regeneration solutions (see Materials and Methods for details). In vitro translation reactions were initiated by the addition of purified mRNA to each reaction well. Using this basic assay format, a number of parameters were assessed and optimized, namely, assay temperature, time, mRNA concentration, and reaction volume (summarized in Fig. S2 in the supplemental material). In addition, we compared the luminescence signal of the CBG firefly luciferase with CBG99, derived from the click beetle […] ([18]).
FreeStyle human embryonic kidney (HEK) 293F cells (Thermo Fisher Scientific) were grown in 500-mL polycarbonate Erlenmeyer vented flasks (Corning) containing FreeStyle 293 expression medium (Life Technologies) upon reaching a density of approximately 2 × 10^6. Cells were then centrifuged at 1,000 × g for 10 min at 4°C, the medium was discarded, and the resulting pellet was washed once in buffer II containing 20 U of human placental RNase inhibitor (Sigma-Aldrich) and cOmplete EDTA-free inhibitor cocktail (Roche) before being centrifuged at 2,800 × g for 10 min. Clarified HEK cell lysate was obtained in the same way as described for P. falciparum lysate.
PfIVT and HsIVT reactions (5 μL final volume) were performed in 384-well plates (Corning) containing 50% lysate from cells (either P. falciparum or HEK 293F), 10% amino acid solution (final concentration of 400 μM for each amino acid in 60 mM KOH; biotechrabbit), 10% energy recovery solution (final assay concentrations of 40 mM HEPES [pH 7.4], 1.5 mM ATP, 0.15 mM GTP, […] creatine phosphate, and 40 U/mL creatine phosphokinase), 10% helper solution (final assay concentrations of 200 μM cystine, 2% polyethylene glycol 3000 [PEG 3000], 1 mM spermidine, 0.5 mM folinic acid, and 15 μM leupeptin), 10% supplemental salt solution (22.5 mM HEPES [pH 7.4], 50 mM potassium acetate, 1 mM magnesium acetate, 1 mM DTT, 1 U/mL human placental RNase inhibitor, 0.1 mM leupeptin), and 10% cbg99 luciferase mRNA (3,000 ng/mL). A master mix solution containing all components was prepared on ice prior to assays, and 5 μL was dispensed into wells using an automated Integra VIAFLO 16-channel 12.5-μL pipette.

[2] = test system: asexual-blood-stage (ABS) P. falciparum; test: SYBR green-based P. falciparum asexual growth inhibition assay; assay type: cell-based; conditions: Plasmodium falciparum; established inhibitors of protein translation; read-out: EC50 values, µM PfABS (Table S1)
Experimental: The Plasmodium falciparum reference strain 3D7 used throughout this study was cultured as previously described ([39]). Briefly, cultures incubated at 37°C in a humidified atmosphere of 1% O2 and 3% CO2 in balance with N2 were maintained in RPMI 1640 media supplemented with 5% A^+ human red blood cells (provided by the Scottish National Blood Transfusion Service), 25 mM HEPES, 2 mM L-glutamine, 0.5% AlbuMAX II (Gibco), 12 mM sodium bicarbonate, 0.2 mM hypoxanthine, and 20 mg/L gentamicin (pH 7.3).
Our SYBR green asexual-growth assay was based on a previous report ([45]). In brief, 96-well black clear-bottom plates (Corning) were preprinted with a compound and normalized with DMSO to 0.5% of a total assay volume of 100 μL. Highly synchronized ring-stage parasites and blood were added to a 2% final parasitemia and 1% hematocrit. The compounds were incubated with parasites for 72 h prior to freezing at −20°C (to aid cell lysis). The plate was thawed on ice and lysis buffer (20 mM Tris pH 7.5, 5 mM EDTA, 0.008% [w/v] saponin, […]) containing SYBR green I (Thermo Fisher Scientific) at a final concentration of 0.02% (v/v) was added. The 96-well plate was equilibrated to room temperature for 1 h before fluorescence was determined on a TECAN Infinite Pro 200 microplate reader using green fluorescent protein (GFP) filters (excitation, 485 nm; emission, 535 nm). Data were fitted to a two-parameter equation using GraFit version 7.0 (Erithacus Software), and EC50 values were calculated. An excess of the standard inhibitor mefloquine (10 μM) was used to define 0% parasite growth.

[3] = molecular target: P. falciparum translation (P. falciparum lysate); test: P. falciparum in vitro translation (PfIVT) assay, lysate-based, luciferase reporter; assay type: biochemical, Plasmodium falciparum; conditions: established inhibitors of protein translation; read-out: IC50 values, µM PfIVT (Table S1)
Text: as §1, §2
3D7 parasites were synchronized following two rounds of treatment with D-sorbitol (5%), as previously described ([40]). The hematocrit was reduced from 5% (for standard culture) to 1.5 to 2% and cultures were transferred into HYPERflasks (Corning). Fresh medium was added once or twice daily. […] Harvested red blood cells (infected) were lysed by incubation in 0.1% (wt/vol) saponin on ice for 10 min with gentle agitation. Free parasites were harvested by centrifugation (2,800 × g, 10 min, 4°C) and washed 3 times in wash buffer (WB; 100 mM potassium acetate, 2.5 mM magnesium acetate, 45 mM HEPES [pH 7.4], 250 mM sucrose, 2 mM dithiothreitol, and 15 μM leupeptin) to remove lysed red blood cell debris. The resulting pellet was resuspended in 1 volume of WB supplemented with cOmplete EDTA-free protease inhibitor cocktail (Roche; 1 tablet/20 mL) and human RNase A inhibitor (Sigma; 5 U/mL). Parasite lysis was achieved by nitrogen cavitation using a prechilled 45-mL Parr cell disruption vessel (1,500 lb/in^2, 60 min, 4°C). To clarify the lysate, it was centrifuged (10,000 × g, 15 min, 4°C), and the supernatant was collected, transferred into fresh tubes, and centrifuged (30,000 × g, 15 min, 4°C). As a quality assurance step for each lysate, the RNA content of the resulting supernatant was determined using a NanoDrop spectrophotometer (Shimadzu). Supernatants with RNA levels of >250 ng/μL were aliquoted (100 μL), flash frozen in liquid nitrogen, and stored at −80°C.

Row | Compound | effect on translation in the HsIVT assay (Fig. S3A) [1] | EC50 [2] [µM] | IC50 [3] [µM] | inhibition of translation in HsIVT assay (validation) [1] | IC50 ([1]; weighted mean ± SD from at least two biological replicates, read-out: IC50 in the HsIVT assay (Fig. S3B)) [nM] | activity in HsIVT assay at 100 μM ([1]; 100 μM)
1 | O=C(NCCN1CCCC1)c1cc(-c2ccc(CN3CCOCC3)cc2)nc2ccc(F)cc12 [DDD107498/M5717, reference compound] | little or no effect | 0.0008 | 0.1 | – | – | –
2 | CC[C@H]1CN2CCc3cc(OC)c(OC)cc3[C@@H]2C[C@@H]1C[C@H]1NCCc2cc(OC)c(OC)cc21 [Emetine, emetine, reference compound] | ablated activity | 0.03 | 1.8 | successfully inhibit translation | 800 ± 100 | –
3 | C[C@H]1CCC[C@H](C[C@H]2Cc3cc(O)cc(O)c3C(=O)O2)O1 [Cladosporin, cladosporin, reference compound] | little or no effect | 0.07 | 13 | – | – | inactive
